From patent US20130022673A1, “ENHANCEMENT OF MAGNESIUM UPTAKE IN MAMMALS” (priority 2003, published 2013)

Experiments:
[1] = oral intake; 'it is believed'; cited from earlier work
[2] = test system: 'restless legs' and intermittent leg cramps; settings: Week 3-4; scale 0 to 100
Excerpt: A person suffered from ‘restless legs’ and intermittent leg cramps during sleep.
Each week the subject was asked to rate the intensity of the problem on a consistent rating scale with ‘0’ indicating no problem and ‘100’ indicating the most severe expression of the condition.

Molecule | fraction of elemental magnesium absorbed for use by the body [1] [%] | Ave. intensity of leg cramp related difficulty [2]
[O]=[Mg] [magnesium oxide] | 3 to 12 | 
choline citrate |  | 83
